In assay [1] the target is T1, MMP-1 (Homo sapiens, UniProt P03956).
T1 construct: made in house; host or cells: Sf21 insect cells, baculovirus (pBlueBac4.5)
T1 sequence (P03956 100-469): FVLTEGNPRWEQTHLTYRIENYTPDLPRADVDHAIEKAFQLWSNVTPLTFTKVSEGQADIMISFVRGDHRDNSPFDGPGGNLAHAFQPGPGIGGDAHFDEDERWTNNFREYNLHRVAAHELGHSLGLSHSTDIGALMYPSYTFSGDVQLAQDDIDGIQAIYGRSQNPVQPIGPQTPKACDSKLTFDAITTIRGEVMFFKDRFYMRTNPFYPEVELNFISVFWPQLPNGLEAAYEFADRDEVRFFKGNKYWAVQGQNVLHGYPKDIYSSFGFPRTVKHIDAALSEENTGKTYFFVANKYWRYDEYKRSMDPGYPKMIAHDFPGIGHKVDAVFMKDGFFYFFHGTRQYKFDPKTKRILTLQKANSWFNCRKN
Kind of assay: MMP-1 spectrofluorometric enzyme activity assay. The class given is biochemical. Particulars: 50 μM compound; read-out: MMP-1 activity inhibited. Here is the method: MMP-1, MMP-2, MMP-9 and MMP-13 were cloned and prepared from insect cells (Sf21 insect cell) by using a Baculovirus system.
Each cDNA for corresponding MMPs was cloned to a pBlueBac4.5 transfer vector (Invitrogen, Cat no. V1995-20), and then transfected to Sf21 cells with a Bac-N-Blue Transfection Kit (Invitrogen, Cat no. K855-01). Sf21 cells were incubated with a TNM-FH (Sigma, St. Louis, Mo., U.S.A) media containing 10% fetal bovine serum at 27° C., then harvested and re-suspended at a concentration of 10^7 cell/Ml. The cell suspension was incubated with a virus containing the cloned gene for 1 hr at room temperature. Infected Sf21 cells were grown for 72 hrs and the medium was recovered, and the MMP was purified. MMP-2 (GENEBANK No. XM—048244) and MMP-9 (GENEBANK No. XM—009491) were recovered from a gelatin-sepharose affinity column (Sigma, G5384) by eluting with 5% DMSO-containing buffer. […]
As a control, 2 Ml of reaction buffer (50 mM Tricine, pH 7.5, 10 mM CaCl2, 200 mM NaCl) comprising DMSO, 10 nM of enzyme and 10 μM of substrate was prepared in a cuvette. Fluorescence intensity was measured for 5-10 min at room temperature with a spectrofluorometer.
50 μM Chalcone or its derivatives were added to a reaction buffer containing a substrate and enzyme, and fluorescence intensity was measured in the same manner.

Assay [2] concerns human umbilical vein endothelial cells (HUVECs). Kind of assay: Tube formation of HUVEC on Matrigel. Format: cell-based. Particulars: 50 μM, 8-16 hrs. From the text:
The effect of chalcone or its derivatives on human endothelial cells was investigated to evaluate the biological effect of chalcones as MMP inhibitors. Since MMPs are responsible for the degradation of extracellular matrix, chalcone or its derivatives can inhibit the formation of tubular network of vessel, which represent migration and differentiation of endothelial cell. Blood vessel endothelial cells, human umbilical vein endothelial cells (HUVECs), were isolated from freshly obtained cords after cesarean section according to Grants' method (Grants D. S., et al., Cell, 58, pp933-943, 1989). They were identified by immunocytochemical staining with anti-Factor VIII antibody. HUVECs cultured on Matrigel (BD Bioscience, Bedford, Mass., USA) were treated with 50 μM of chalcone or its derivatives, and further incubated at 37° C. for 8-16 hrs. As a control, the procedure was repeated with the solvent of the above compounds.

Assay [3] deals with experimentally induced comedones. Description: Comedolysis by EIC (experimentally induced comedones) formation. Format: in vivo, New Zealand white rabbits. Particulars: topical once a day, 3 weeks. From the text: Effects of chalcone on comedolysis were studied using subjects of ten mature New Zealand white rabbits, which were bred to approximately 2 kg of body weight for several weeks. In order to generate EIC, 50% oleic acid in polyethylene glycol was applied to both ears of rabbits for 2 weeks. The experimental agent was applied to the ventral surface near the auditory canal once a day with the tip of a cotton stick. 18 ears of rabbits were divided into three groups, and only one of ethanol-propylene glycol (1:1) (control), 1% chalcone in ethanol-propylene glycol (1:1), or 5% chalcone in ethanol-propylene glycol (1:1) was applied on each groups for 3 weeks. The remaining 2 ears were left untreated. Biopsy specimens were taken at 3 week by punch and specimens were fixed in 10% formalin solution and embedded in paraffin for light microscopic examination. Sections of 5 μm thickness were cut and hematoxylin and eosin stain were performed. Under light microscope, fairly large comedones were formed showing hyperplasia and hyperkeratosis of epithelium in specimen treated with vehicle only. The formation of comedones decreased in specimen treated with 1% or 5% of chalcone.

The subject of assay [4] is UVB-induced wrinkle formation. Description: Skin photoaging, UVB-induced wrinkle formation. Format: in vivo, albino hairless HOS:HR1 mice. Particulars: topical, 15 week. From the text:
Effects of chalcone on skin photoaging were studied using mouse skin wrinkle induced by UV irradiation. 6-week male albino hairless HOS:HR1 mice were used for wrinkle formation induced by long-term repeated UVB irradiation. Wrinkles were formed according to the modified method described by Bissett et al (Photochem Photobiol 46: 367-378, 1987) The dose was set at 60 mJ per cm^2 for 4 weeks and increased to 120 mJ per cm^2 for 11 weeks. The frequency of irradiation was set at three times per week. In this protocol, wrinkles began to be observed macroscopically in the dorsal region from about 8 week after initiation of irradiation, and deep wrinkles were formed at 12 week. 30 hairless mice were divided into three groups, and only one of ethanol-propylene glycol (7:3) (control), 1% chalcone in ethanol-propylene glycol (7:3), or 5% chalcone in ethanol-propylene glycol (7:3) was applied on each groups for 15 weeks. 100 μl of the experimental agent was applied to the dorsal region three times weekly just after UVB exposure. At 15 week after initiation of repeated UVB irradiation, each hairless mouse was anesthetized, and the degree of wrinkle formation was evaluated according to Table 3. […] [table]

For `O=C(/C=C/c1ccccc1)c1ccccc1` [Chalcone], in assay [1], the inhibition at 50 µM is around 75%. In assay [2], the “Tubular (microvascular) network formation of HUVEC” value is given as “microvascular network was disconnected”. Besides, the Formation of comedones result in assay [3] (1% chalcone in ethanol-propylene glycol (1:1)) and in assay [3] (5% chalcone in ethanol-propylene glycol (1:1)) was “decreased” each time. Also, the “UVB-induced wrinkle formation vs vehicle-treated group” value in assay [4] (1% chalcone in ethanol-propylene glycol (7:3)) and in assay [4] (5% chalcone in ethanol-propylene glycol (7:3)) was “significantly inhibited” each time.

The values are drawn from patent US7572831B2, “Composition containing chalcone” (Angiolab, Inc., priority 2002, dated 2009).
